The values that follow come from publication PMC8910560, “Screening of Novel Bioactive Peptides from Goat Casein: In Silico to In Vitro Validation” (International Journal of Molecular Sciences, 2022).

Like-named read-outs stand apart in the source and are kept apart here. Ends that are not written are not given here.

Assay [1] concerns ACE. As to conditions: cited from earlier work.
On the set-up of assay [2]: method as in Contreras et al. (2013) [21]. As to conditions: ref Contreras et al. (2013) [21], cited from earlier work.
For assay [3], the target named is T1, angiotensin-I converting enzyme (ACE) (Oryctolagus cuniculus, UniProt P12822).
T1 construct: purchased Sigma-Aldrich
T1 sequence (P12822 34-1310): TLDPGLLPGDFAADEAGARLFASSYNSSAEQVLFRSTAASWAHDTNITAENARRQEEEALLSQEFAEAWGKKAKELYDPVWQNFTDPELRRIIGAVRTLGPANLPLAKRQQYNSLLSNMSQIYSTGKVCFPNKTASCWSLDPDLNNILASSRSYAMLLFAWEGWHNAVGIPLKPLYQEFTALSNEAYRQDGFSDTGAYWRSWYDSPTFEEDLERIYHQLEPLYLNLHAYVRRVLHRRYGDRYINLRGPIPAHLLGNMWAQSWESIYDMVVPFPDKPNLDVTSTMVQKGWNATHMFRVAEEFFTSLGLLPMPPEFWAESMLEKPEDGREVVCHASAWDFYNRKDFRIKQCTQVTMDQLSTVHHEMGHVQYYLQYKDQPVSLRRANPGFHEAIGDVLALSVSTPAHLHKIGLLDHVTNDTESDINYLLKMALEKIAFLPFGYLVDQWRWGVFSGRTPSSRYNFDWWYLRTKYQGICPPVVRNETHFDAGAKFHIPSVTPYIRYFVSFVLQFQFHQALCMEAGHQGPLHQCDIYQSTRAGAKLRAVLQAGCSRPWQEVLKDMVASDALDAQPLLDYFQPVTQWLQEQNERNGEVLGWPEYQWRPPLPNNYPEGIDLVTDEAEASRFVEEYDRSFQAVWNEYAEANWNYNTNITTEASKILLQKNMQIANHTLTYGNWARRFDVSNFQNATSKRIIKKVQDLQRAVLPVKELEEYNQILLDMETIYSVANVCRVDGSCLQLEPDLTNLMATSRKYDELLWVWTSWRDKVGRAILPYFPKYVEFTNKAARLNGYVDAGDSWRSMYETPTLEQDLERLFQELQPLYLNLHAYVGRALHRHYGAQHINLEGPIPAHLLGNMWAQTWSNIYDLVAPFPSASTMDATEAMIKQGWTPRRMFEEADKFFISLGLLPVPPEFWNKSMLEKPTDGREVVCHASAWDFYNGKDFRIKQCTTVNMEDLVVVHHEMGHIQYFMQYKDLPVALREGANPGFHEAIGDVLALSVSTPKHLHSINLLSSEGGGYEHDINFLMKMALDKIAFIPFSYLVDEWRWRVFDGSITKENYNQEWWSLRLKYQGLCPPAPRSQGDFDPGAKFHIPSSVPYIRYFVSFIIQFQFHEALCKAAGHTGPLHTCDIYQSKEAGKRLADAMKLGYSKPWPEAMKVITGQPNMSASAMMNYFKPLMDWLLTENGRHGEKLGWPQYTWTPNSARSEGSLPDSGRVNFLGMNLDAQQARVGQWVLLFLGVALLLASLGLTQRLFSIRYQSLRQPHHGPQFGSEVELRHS
Briefly: ACE inhibitory activity (iACE), fluorometric assay. The assay is classed as biochemical. Here is the method:
The ACE inhibitory activity was carried out using the fluorometric assay described by Coscueta, Brassesco, and Pintado (2021). The iACE of each sample (raw peptide and digested) was evaluated in duplicate and expressed as the concentration capable of inhibiting 50% of the enzymatic activity (IC50). To calculate the IC50 values, non-linear modeling was used, and the results were expressed as μg mL^−1 to inhibit 50% of the enzymatic activity.
Simulated gastrointestinal digestion was performed according to the method described by Madureira et al. (2011). Briefly, mouth digestion was mimicked by introducing the peptide sequence (2.5 mg/mL) into 15 mL of a 1 mM CaCl2 solution of 100 U mL^−1 α-amylase, under constant stirring (200 rpm) for 2 min at 37 °C, simulating masticatory movements. A 1 M NaHCO3 solution was used to adjust the pH of artificial saliva to 6.9. Subsequently, a pepsin solution, 25 mg/mL, was added with a ratio of 0.05 mL/mL of a sample at pH 2.0 (simulated gastric solution, stomach) following incubation for 2 h, 37 °C at 130 rpm orbital agitation for the gastric phase. Finally, intestinal digestion and absorption were simulated by adjusting pH values to […] using a 1 M NaHCO3 solution and adding a solution of bile salts and pancreatin to the digest.

Where [4] appears, read: antihypertensive oligopeptides encoded in human β-casein.
Where [5] appears, read: whey-derived peptides, ref Tavares et al. (2011) [14].
Where [6] appears, read: antihypertensive oligopeptides encoded in various β-caseins.
Setting [7] is: Digested (simulated gastrointestinal digestion, 50 µg mL^−1 in intestinal compartment).

In the case of “NPPHQIYP [antihypertensive oligopeptide encoded in the human β-casein]”, the “IC50 (ACE)” value in assay [1] (setting [4]) is 35.7 µg/mL. Consider DAQSAPLRVY, for which the “IC50 (ACE)” value in assay [1] (setting [5]) is 12.2 µg/mL. Turning to “AYFYPEL [casein-derived peptide studied by Contreras et al. (2013)]”, the antioxidant capacity in assay [2] (after the digestion process) is 4.160 ± 0.623 µmol TE µmol^−1 peptide; in assay [2] (before digestion), 3.216 ± 0.114 µmol TE µmol^−1 peptide. For orientation: IC50 means the concentration at which inhibition is half-maximal. Read a low IC50 as greater potency. For HQPPQPL [HQPPQPL], in assay [3] (Raw peptide, mean ± SD), the IC50 is > 3680 µM. Regarding “TVYTKGRVMP [antihypertensive oligopeptide encoded in the human β-casein]”, the “IC50 (ACE)” value in assay [1] (setting [4]) was 43.7 µg/mL. In the case of PAVVLP, in assay [1] (setting [4]), the “IC50 (ACE)” value is 26.8 µg/mL. As to “HPFAQTQQSLVYP [antihypertensive oligopeptide encoded in various β-caseins]”, the “IC50 (ACE)” value in assay [1] (setting [6]) was 36.1 µg/mL. As to “LPQNILP [antihypertensive oligopeptide encoded in the human β-casein]”, the “IC50 (ACE)” value in assay [1] (setting [4]) was 36.5 µg/mL. Take KGYGGVSLPEW: the “IC50 (ACE)” value in assay [1] (setting [5]) is 0.7 µg/mL. RYLGY: the “change of antioxidant activity” value in assay [2] (after the digestion process) is on record as “reduced”. As for “YQKFPQY [casein-derived peptide studied by Contreras et al. (2013)]”, the “change of antioxidant activity” value in assay [2] (after the digestion process) is reported as “reduced”. Regarding SWMHQPP [SWMHQPP], the half-inhibitory concentration (IC50) was > 56.7 µM in assay [3] (setting [7]) and 253 µM in assay [3] (Raw peptide, mean ± SD). As to VLPYP, the “IC50 (ACE)” value in assay [1] (setting [4]) is 21.1 µg/mL. As to VLPIP, in assay [1] (setting [4]), the “IC50 (ACE)” value is 16.7 µg/mL. Consider DKVGINYW, for which the “IC50 (ACE)” value in assay [1] (setting [5]) is 25.4 µg/mL. For “FAQTQSLVYP [antihypertensive oligopeptide encoded in various β-caseins]”, the “IC50 (ACE)” value in assay [1] (setting [6]) is 28.8 µg/mL. On to PHQIYP, for which the “IC50 (ACE)” value in assay [1] (setting [4]) was 22.6 µg/mL.

For the substance YPYQGPIVL [YPYQGPIVL], the IC50 was > 47.7 µM in assay [3] (setting [7]) and 1060 µM in assay [3] (Raw peptide, mean ± SD). As for QSLVYPFTGPIPNSL [QSLVYPFTGPIPNSL], the concentration for half-maximal inhibition (IC50) was > 30.6 µM in assay [3] (setting [7]) and > 1840 µM in assay [3] (Raw peptide, mean ± SD). On to MHQPPQPL [MHQPPQPL], for which the half-maximal inhibitory concentration (IC50) in assay [3] (Raw peptide, mean ± SD) is > 3170 µM. As to VMP, the “IC50 (ACE)” value in assay [1] (setting [4]) was 10.0 µg/mL. SLVYP: in assay [1] (setting [6]), the “IC50 (ACE)” value is 23.7 µg/mL.
